Measured values published in patent US20220313629A1, “TRANSIENT POTENTIAL MELASTATIN 8 (TRPM8) ANTAGONISTS AND RELATED METHODS” (MARSHALL UNIVERSITY RESEARCH CORPORATION, priority 2019, published 2022).
Several values for one entry are separate records, joined by “and”; a condition that tells them apart may be missing. Equal entries are not always repeated. Where two headings read alike, the source gives them in different places.

Legend:
rat and human TRPM8 = conditions: literature; read-out: IC50 values against menthol, icilin and cold activation at rat and human TRPM8; cited from earlier work
TRPM8 [1] = biological target: T1, TRPM8 (Homo sapiens, UniProt Q7Z2W7); conditions: literature value; read-out: IC50 in whole-cell patch-clamp assay (reported); cited from earlier work
Target sequence in this assay (Q7Z2W7 whole entry): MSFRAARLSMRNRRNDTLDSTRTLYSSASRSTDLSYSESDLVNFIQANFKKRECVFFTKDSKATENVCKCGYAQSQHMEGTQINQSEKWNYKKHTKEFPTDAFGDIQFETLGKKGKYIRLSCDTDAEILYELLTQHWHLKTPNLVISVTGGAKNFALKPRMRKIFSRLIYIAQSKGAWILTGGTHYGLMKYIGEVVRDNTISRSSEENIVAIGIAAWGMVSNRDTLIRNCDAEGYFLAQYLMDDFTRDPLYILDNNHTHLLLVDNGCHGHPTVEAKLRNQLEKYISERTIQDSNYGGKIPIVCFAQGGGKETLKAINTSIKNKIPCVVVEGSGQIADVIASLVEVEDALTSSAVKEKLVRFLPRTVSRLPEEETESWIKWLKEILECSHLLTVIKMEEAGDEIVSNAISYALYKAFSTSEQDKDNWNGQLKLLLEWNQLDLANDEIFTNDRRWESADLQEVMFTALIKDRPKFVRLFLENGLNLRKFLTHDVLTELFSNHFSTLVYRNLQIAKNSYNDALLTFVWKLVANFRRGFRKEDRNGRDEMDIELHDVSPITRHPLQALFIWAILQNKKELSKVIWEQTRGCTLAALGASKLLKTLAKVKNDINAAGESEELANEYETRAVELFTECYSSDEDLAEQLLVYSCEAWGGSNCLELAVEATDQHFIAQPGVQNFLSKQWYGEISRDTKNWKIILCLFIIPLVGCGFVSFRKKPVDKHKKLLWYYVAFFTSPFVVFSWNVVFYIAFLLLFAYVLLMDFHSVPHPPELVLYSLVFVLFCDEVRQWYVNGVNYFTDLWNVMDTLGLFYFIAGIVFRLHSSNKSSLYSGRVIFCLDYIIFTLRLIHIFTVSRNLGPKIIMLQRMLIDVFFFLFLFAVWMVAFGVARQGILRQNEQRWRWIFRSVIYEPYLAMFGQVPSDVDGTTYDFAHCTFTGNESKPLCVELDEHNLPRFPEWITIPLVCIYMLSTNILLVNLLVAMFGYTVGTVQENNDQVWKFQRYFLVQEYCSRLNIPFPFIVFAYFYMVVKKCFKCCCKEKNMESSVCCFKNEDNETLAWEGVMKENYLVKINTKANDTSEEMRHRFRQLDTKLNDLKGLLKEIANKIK

TRPM8 [2] = biological target: T1, TRPM8; conditions: cited from earlier work
Target sequence in this assay (Q7Z2W7 whole entry): as above

TRPM8 [3] = biological target: T1, TRPM8; test: TRPM8 antagonist activity by Fura-2 Ca2+ imaging in HEK-293 cells stably expressing human TRPM8; format: cell-based; conditions: inhibition of icilin (500 nM)-evoked Ca2+ entry; HEK-293 cells stably expressing hTRPM8; mean ± SEM, three independent experiments; read-out: Functional Activity hTRPM8 potency IC50 ± SEM
Target sequence in this assay (Q7Z2W7 whole entry): as above

human TRPA1 [4] = biological target: T2, human TRPA1 (Homo sapiens, UniProt O75762); test: TRPA1 agonist and antagonist Ca2+ flux assay (FLIPR, Fluo-8) in HEK293 cells stably expressing human TRPA1; format: cell-based; conditions: for % Activation Mean ± SEM (n = 5), TRPA1 antagonist data (Percentage Inhibition Normalized to EC80 Control): vs EC80 of AITC
human TRPA1 [5] = biological target: T2, human TRPA1; conditions: vs. the effect of 80 μM AITC; read-out: IC50 at TRPA1 reported by Klionsky and colleagues; cited from earlier work
[6] = Stability in liver microsomes; format: in vitro ADME; conditions: mouse liver microsomes; CLint = k/P
Procedure: Stability in liver microsomes. Male CD-1 mouse liver microsomes (Lot#1710069) were purchased from XenoTech. The reaction mixture, minus NADPH, was prepared as described below. Compound 14 was added into the reaction mixture at a final concentration of 1 μM. The control compound, testosterone, was run simultaneously with Compound 14 in a separate reaction. An aliquot of the reaction mixture (without cofactor) was equilibrated in a shaking water bath at 37° C. for 3 minutes. The reaction was initiated by the addition of the cofactor, and the mixture was incubated in a shaking water bath at 37° C. Aliquots (100 μL) were withdrawn at 0, 10, 20, 30, and 60 minutes. Compound 14 and testosterone samples were immediately combined with 400 μL of ice-cold 50/50 acetonitrile (ACN)/H2O containing 0.1% formic acid and internal standard to terminate the reaction. The samples were then mixed and centrifuged to precipitate proteins. All samples were assayed by LC-MS/MS using electrospray ionization. […] are compared to the PARR at time 0 to determine the percent remaining at each time point. Half-lives and intrinsic clearance were calculated using GraphPad software, fitting to a single-phase exponential decay equation.
In vitro metabolic stability. Compound 14 was evaluated for metabolic stability in mouse liver microsomes by Absorption Systems (Exton, Pa.), by determining the percent remaining at 0, 10, 20, 30 and 60 minutes when incubated with mouse liver microsomes in the presence of NADPH. The half-life (t1/2) and in vitro intrinsic clearance (CLint) of Compound 14 was calculated, in addition to the control (testosterone).

TRPM8 [7] = biological target: T1, TRPM8; conditions: different cell type (CHO vs HEK) or species (human versus mouse); read-out: previously-reported EC50 values; cited from earlier work
Target sequence in this assay (Q7Z2W7 whole entry, species assumed): as the sequence (Q7Z2W7 whole entry) above

TRPM8 [8] = biological target: T1, TRPM8; test: TRPM8 agonist (intrinsic) activity by Fura-2 Ca2+ imaging in HEK-293 cells stably expressing human TRPM8; format: cell-based; conditions: HEK-293 cells stably expressing hTRPM8; read-out: EC50 (agonist-evoked Ca2+ influx at hTRPM8)
Target sequence in this assay (Q7Z2W7 whole entry): as above

T2 sequence (O75762 whole entry): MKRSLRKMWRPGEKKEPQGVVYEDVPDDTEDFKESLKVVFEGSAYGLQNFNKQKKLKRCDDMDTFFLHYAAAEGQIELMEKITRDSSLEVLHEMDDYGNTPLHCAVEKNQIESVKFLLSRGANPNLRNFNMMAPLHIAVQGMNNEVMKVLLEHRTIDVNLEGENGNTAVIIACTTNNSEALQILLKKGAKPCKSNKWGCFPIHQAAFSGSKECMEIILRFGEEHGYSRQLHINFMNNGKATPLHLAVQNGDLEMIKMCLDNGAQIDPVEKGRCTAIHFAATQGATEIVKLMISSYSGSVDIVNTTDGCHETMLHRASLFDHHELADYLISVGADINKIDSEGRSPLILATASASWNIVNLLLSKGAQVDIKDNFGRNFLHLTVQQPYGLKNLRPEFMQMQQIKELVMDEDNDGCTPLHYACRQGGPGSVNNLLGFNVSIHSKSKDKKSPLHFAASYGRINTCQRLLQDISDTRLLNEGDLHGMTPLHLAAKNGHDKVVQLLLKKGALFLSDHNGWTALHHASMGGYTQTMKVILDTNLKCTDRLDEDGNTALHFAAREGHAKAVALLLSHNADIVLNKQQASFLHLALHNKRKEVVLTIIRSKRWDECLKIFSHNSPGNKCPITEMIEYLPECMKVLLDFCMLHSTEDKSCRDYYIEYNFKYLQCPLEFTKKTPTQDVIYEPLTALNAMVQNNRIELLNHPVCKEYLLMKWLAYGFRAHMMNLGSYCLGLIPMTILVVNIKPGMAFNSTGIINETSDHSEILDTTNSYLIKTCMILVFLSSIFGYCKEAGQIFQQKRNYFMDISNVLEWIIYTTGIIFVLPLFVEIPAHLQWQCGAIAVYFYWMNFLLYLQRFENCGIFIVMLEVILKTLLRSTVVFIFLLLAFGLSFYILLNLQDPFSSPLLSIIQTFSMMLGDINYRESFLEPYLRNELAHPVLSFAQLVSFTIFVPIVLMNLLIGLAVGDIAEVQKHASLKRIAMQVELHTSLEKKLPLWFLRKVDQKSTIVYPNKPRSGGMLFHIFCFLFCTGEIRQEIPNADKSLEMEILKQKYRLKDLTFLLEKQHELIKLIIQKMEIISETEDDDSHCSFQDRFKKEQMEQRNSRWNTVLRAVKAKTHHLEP

For `C[C@H](NC(=O)N1CCc2cccnc2[C@H]1c1ccc(C(F)(F)F)cc1)C(F)(F)F` [AMG2850], the IC50 (rat and human TRPM8) is listed as 7 to 156 nM.

For `COc1cc(CN(CCN)C(=O)OC(C)c2ccccc2)ccc1OCc1ccccc1` (stereo not drawn) [PBMC], the IC50 (TRPM8 [1]) is given as 0.4 to 0.6 nM.

In the case of `C[C@H](c1ccc(F)cc1)N(Cc1cccc(C(=O)O)c1)C(=O)c1cnc2ccccc2c1` [PF-05105679], the IC50 (TRPM8 [2]; literature, read-out: IC50, inhibition of WS-12-mediated activation at human TRPM8) is listed as 181 ± 7.21 nM, the IC50 (TRPM8 [2]; literature, read-out: IC50, inhibition of voltage-mediated activation at human TRPM8) is listed as 103 ± 29.4 nM and the IC50 (TRPM8 [2]; literature, read-out: hTRPM8 IC50 (reported Ca2+ flux activity)) is listed as 181 nM.

For `O=C(O)c1ccc(S(=O)(=O)N(Cc2ccc(OC(F)(F)F)cc2)c2ncc(C(F)(F)F)cc2Cl)cc1` [RQ-00203078, reference compound], the IC50 (TRPM8 [2]; HEK cells expressing hTRPM8, read-out: IC50 previously reported against 30 μM menthol-evoked Ca2+ influx) is given as ~8 nM, the “reported potency at hTRPM8” value (TRPM8 [2]; literature) is given as < 10 nM and the IC50 (TRPM8 [3]) is given as 2.96 nM and 3 nM.

In the case of `N.N.N.N.N.N.N.N.N.N.N.N.N.N.[Cl-].[Cl-].[Cl-].[Cl-].[Cl-].[Cl-].[O-2].[O-2].[Ru+3].[Ru+3].[Ru+4]` [Ruthenium Red, reference compound], the “% Activation Mean ± SEM (n = 5), TRPA1 antagonist data (Percentage Inhibition Normalized to EC80 Control)” value (human TRPA1 [4]; 3 nM) is reported as −6.0 ± 1.2%, the “% Activation Mean ± SEM (n = 5), TRPA1 antagonist data (Percentage Inhibition Normalized to EC80 Control)” value (human TRPA1 [4]; 10 nM) is reported as 1.9 ± 2.4% and the “% Activation Mean ± SEM (n = 5), TRPA1 antagonist data (Percentage Inhibition Normalized to EC80 Control)” value (human TRPA1 [4]; 30 nM) is reported as 5.8 ± 4.6%. For the same compound, the “% Activation Mean ± SEM (n = 5), TRPA1 antagonist data (Percentage Inhibition Normalized to EC80 Control)” value (human TRPA1 [4]; 100 nM) was 15.7 ± 9.8%, the “% Activation Mean ± SEM (n = 5), TRPA1 antagonist data (Percentage Inhibition Normalized to EC80 Control)” value (human TRPA1 [4]; 300 nM) was 91.1 ± 2.9% and the “% Activation Mean ± SEM (n = 5), TRPA1 antagonist data (Percentage Inhibition Normalized to EC80 Control)” value (human TRPA1 [4]; 1,000 nM) was 100.9 ± 0.1%. The “% Activation Mean ± SEM (n = 5), TRPA1 antagonist data (Percentage Inhibition Normalized to EC80 Control)” value (human TRPA1 [4]; 3,000 nM) was 100.9 ± 0.7%, the “% Activation Mean ± SEM (n = 5), TRPA1 antagonist data (Percentage Inhibition Normalized to EC80 Control)” value (human TRPA1 [4]; 10,000 nM) was 100.8 ± 0.3% and the IC50 (human TRPA1 [4]; AITC 10 μM, read-out: IC50, blockade of AITC-activated hTRPA1 responses) was 162 ± 33 nM. The IC50 (human TRPA1 [5]) was 29 ± 6 nM.

In the case of `C[C@]12CC[C@H]3[C@@H](CCC4=CC(=O)CC[C@@]43C)[C@@H]1CC[C@@H]2O` [Testosterone, reference compound], the “CLint (mL/min/mg protein)” value [6] is reported as 0.372 mL/min/mg protein.

In the case of `O=C1NC(c2cccc([N+](=O)[O-])c2)=CCN1c1ccccc1O` [icilin, 3-(2-hydroxyphenyl)-6-(3-nitrophenyl)-3,4-dihydropyrimidin-2(1H)-one], the EC50 (TRPM8 [7]) is listed as 120 to 200 nM and the EC50 (TRPM8 [8]) is listed as ~70 nM and 74 nM.
